Reference: US11369623B2, “Anticancer combination of a CBP/catenin inhibitor and an immune checkpoint inhibitor” (PRISM Pharma Co., Ltd., priority 2015, dated 2022)

Assays:
[1] = system: human breast cancer cell line (MDA-MB-231); assay: Side population (cancer stem cell) fraction of MDA-MB-231 after compound treatment; type: cell-based; settings: 0.3 μM in culture medium, after 4 days; untreated 1.6% SP cells
Experimental: To a side population fraction (cancer stem cells were considered to have been concentrated) obtained by two-dimensional cell sorting of human breast cancer cell line (MDA-MB-231) with Hoechst Blue and Hoechst Red was added 0.3 μM CBP/catenin inhibitor (compound 2) in the culture medium. After 4 days, the side population fraction almost disappeared (when untreated with medicament, 1.6% SP cells were detected, whereas 0% was detected in compound 2 treatment group), and the cancer stem cells were considered to have differentiated (FIG. 3).

bile duct cancer = settings: cited from earlier work
[2] = cited from earlier work
[3] = system: spontaneous breast cancer of transgenic mouse (MMTV-Wnt-1); assay: Tumor volume in mice serially transplanted with spontaneous breast cancer of transgenic mouse (MMTV-Wnt-1); type: in vivo, mouse (C57BL/6J); settings: compound A 50 mg/kg twice per day oral, antibody 10 mg/kg twice per week i.p.
Description: Effect of combined use of CBP/catenin inhibitor (compound A) and anti-mouse PD-1 (CD279) antibody in animal model serially transplanted with subcultured spontaneous breast cancer of transgenic mouse (MMTV-Wnt-1)
Spontaneous breast cancer of transgenic mouse (MMTV-Wnt-1), in which Wnt-1 had been locally expressed in mammary gland epithelial cells, was harvested, and serially transplanted to the background line mouse (C57BL/6J) with trocar. When the serially transplanted tumor became about 1.5 g, it was isolated, processed into fragments of about 30 mg, and subcutaneously transplanted to the side of the body of 5 mice (C57BL/6J) per each group. Engraftment of the tumor was confirmed, and compound A (50 mg/kg, twice per day, 21 days, oral administration) and anti-mouse PD-1 antibody (Clone: RMP1-14, BioXCell) (10 mg/kg, twice per week, 3 weeks, intraperitoneal administration) were each administered singly or in combination.
With the day of the start of administration as day 0, the major axis and the minor axis of the tumor developed in each mouse were measured by Digimatic Caliper (Mitsutoyo) on days 4, 7, 11, 14, 18, and 21.
The tumor volume was calculated according to the following formula. tumor volume TV(mm^3)=tumor major axis(mm)×tumor minor axis^2(mm^2)/2

[4] = system: 624 mel cells and 928 mel cells; assay: IL-10 production by melanoma cells (ELISA of culture supernatant); type: cell-based, human; settings: 0.2 μM, 24 hr, FIG. 5
Experimental: IL-10 Production Suppressive Action of CBP/Catenin Inhibitor (Compound 1)
624 mel cells and 928 mel cells were used, which are cell lines (melanoma) established from human malignant melanoma patients by US NIH. These cells have been activated and have IL-10 production ability.
In a culture medium (10% FCS-containing RPMI1640, penicillin and streptomycin added), respective melanoma cells were seeded in a 6-well plate at a concentration of 1×10^5 cells/2 ml/well. After seeding, compound 1 was added to a given concentration and the cells were cultured for 24 hr. After 24 hr, the culture supernatant was recovered, and the concentration of IL-10 in the supernatant was measured. For the measurement of IL-10 concentration, Human IL10 OptEIA ELISA set (BD, #555157) was used.

[5] = system: 624 mel cells and 928 mel cells; assay: Influence on proliferation of melanoma cells; type: cell-based, human; settings: 24 hr, any cell

## C[C@H]1[C@H]2N(C(=O)CN(C)N2C(=O)NCc2ccccc2)[C@@H](Cc2ccc(O)cc2)C(=O)N1Cc1cccc2cccnc12 [compound 2, (6S,9S,9aS)-N-benzyl-6-(4-hydroxybenzyl)-2,9-dimethyl-4,7-dioxo-8-(quinolin-8-ylmethyl)octahydro-1H-pyrazino[2,1-c][1,2,4]triazine-1-carboxamide]
[1]
  SP cells detected (side population fraction): 0%

## O=C1[C@H](Cc2ccc(O)cc2)N2C(=O)CCN(C(=O)NCc3ccccc3)[C@H]2CN1Cc1cccc2ccccc12 [ICG-001, (6S,9aS)-N-benzyl-6-[(4-hydroxyphenyl)methyl]-8-(naphthalen-1-ylmethyl)-4,7-dioxo-3,6,9,9a-tetrahydro-2H-pyrazino[1,2-a]pyrimidine-1-carboxamide]
Bile duct cancer
  proliferation inhibitory effect in animal model: strong proliferation inhibitory effect

## C[C@H]1[C@H]2N(C(=O)CN(C)N2C(=O)NCc2ccccc2)[C@@H](Cc2ccc(OP(=O)(O)O)cc2)C(=O)N1Cc1cccc2cccnc12 [PRI-724]
[2]
  toxicity in human compared with conventional Wnt inhibitors having other mechanisms: clearly less toxic in human than conventional Wnt inhibitors

## C=CCN1CC(=O)N2[C@@H](Cc3ccc(O)cc3F)C(=O)N(Cc3cccc(N4CC(N5CCN(CC)CC5)C4)n3)C[C@@H]2N1C(=O)NCc1ccccc1 [compound A, (6S,9aS)-N-benzyl-8-((6-(3-(4-ethylpiperazin-1-yl)azetidin-1-yl)pyridin-2-yl)methyl)-6-((2-fluoro-4-hydroxyphenyl)methyl)-4,7-dioxo-2-(prop-2-en-1-yl)-octahydro-1H-pyrazino[2,1-c][1,2,4]triazine-1-carboxamide]
[3]; Day 0
  tumor volume TV, Mean ± SEM: 75.3 ± 9.2 mm^3
[3]; Day 4
  tumor volume TV, Mean ± SEM: 83.2 ± 8.5 mm^3
[3]; Day 7
  tumor volume TV, Mean ± SEM: 90.5 ± 22.3 mm^3
[3]; Day 11
  tumor volume TV, Mean ± SEM: 123.1 ± 40.5 mm^3
[3]; Day 14
  tumor volume TV, Mean ± SEM: 140.4 ± 45.1 mm^3
[3]; Day 18
  tumor volume TV, Mean ± SEM: 221.6 ± 47.9 mm^3
[3]; Day 21
  tumor volume TV, Mean ± SEM: 237.7 ± 41.2 mm^3

## C[C@H]1[C@H]2N(C(=O)CN(C)N2C(=O)NCc2ccccc2)[C@@H](Cc2ccc(OP(=O)(O)O)cc2)C(=O)N1Cc1cccc2cccnc12 [compound 1, 4-(((6S,9S,9aS)-1-(benzylcarbamoyl)-2,9-dimethyl-4,7-dioxo-8-(quinolin-8-ylmethyl)octahydro-1H-pyrazino[2,1-c][1,2,4]triazin-6-yl)methyl)phenyl dihydrogen phosphate]
[4]
  production of IL-10: production of IL-10 was suppressed
[5]; 0.2 μM
  influence on the proliferation: an influence on the proliferation was not confirmed
[5]; 1 μM
  influence on the proliferation: an influence on the proliferation was confirmed
